# Columns and labels:
# [1] = tested on: circulating immunoglobulins; assay: Wild type mouse study: circulating immunoglobulin profile by ELISA; format: in vivo, C57BL/6 mice; details: clozapine 5 and 10 mg/kg, haloperidol 1 mg/kg, IP 21 days; FIG. 24
# [2] = tested on: bone marrow B cell subsets; assay: Wild type mouse study: bone marrow B cell immunophenotyping by flow cytometry; format: in vivo, C57BL/6 mice; details: 1 mg/kg IP, 21 days
# [3] = tested on: splenic B cell and T cell populations; assay: Wild type mouse study: spleen immunophenotyping by flow cytometry; format: in vivo, C57BL/6 mice
# [4] = no clear dose-dependent relationship; not significant beyond 30 days; cited from earlier work
# IgE = details: cited from earlier work
# Chain of IgE (P01854 1-425 limits assumed): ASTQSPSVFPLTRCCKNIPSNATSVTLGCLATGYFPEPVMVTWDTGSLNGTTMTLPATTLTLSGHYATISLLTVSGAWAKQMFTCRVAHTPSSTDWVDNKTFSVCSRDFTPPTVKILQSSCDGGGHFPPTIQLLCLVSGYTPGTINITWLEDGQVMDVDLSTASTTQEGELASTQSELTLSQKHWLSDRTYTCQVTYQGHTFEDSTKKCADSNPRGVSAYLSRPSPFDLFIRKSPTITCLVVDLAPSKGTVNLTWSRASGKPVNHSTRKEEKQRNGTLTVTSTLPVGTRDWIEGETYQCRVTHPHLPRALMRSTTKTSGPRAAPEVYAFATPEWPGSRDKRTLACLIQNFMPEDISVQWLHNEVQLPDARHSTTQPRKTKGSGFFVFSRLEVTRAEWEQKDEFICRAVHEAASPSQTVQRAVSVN
# CD20 = target: T1, CD20 (Homo sapiens, UniProt P11836); details: cited from earlier work
# T1 construct: host or cells: patients' own B cells
# T1 sequence (P11836 1-297): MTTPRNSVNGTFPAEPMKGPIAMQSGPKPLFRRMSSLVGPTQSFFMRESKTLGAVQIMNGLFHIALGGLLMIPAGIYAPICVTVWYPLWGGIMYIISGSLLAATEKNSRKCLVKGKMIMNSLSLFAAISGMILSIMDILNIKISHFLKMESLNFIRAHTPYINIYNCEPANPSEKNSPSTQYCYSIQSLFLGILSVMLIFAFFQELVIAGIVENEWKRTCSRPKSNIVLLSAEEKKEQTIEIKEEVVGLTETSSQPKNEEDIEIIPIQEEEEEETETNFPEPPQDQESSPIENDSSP
molecule,measurement,setting,value
O=C(CCCN1CCC(O)(c2ccc(Cl)cc2)CC1)c1ccc(F)cc1 [haloperidol],circulating IgA levels compared to control,[1],not observed
same,"early developing B cell subsets in bone marrow (overall B, pre-pro B, pro-B)",[2]; FIG. 18,no significant effect
same,effect on long-lived plasma cells in the bone marrow,[2]; FIG. 20,no effect
same,activated T cells (B220+TCR-beta+) in spleen vs control,"[3]; clozapine 2.5-10 mg/kg, haloperidol 1 mg/kg, IP 21 days, FIG. 21",modestly apparent
same,impact on B cell subpopulations,"[3]; comparator, 1 mg/kg IP, 21 days",not observed
Cc1cc2c(s1)Nc1ccccc1N=C2N1CCN(C)CC1 [olanzapine],risk of pneumonia requiring hospitalization,[4],modestly increased risk
OCCOCCN1CCN(C2=Nc3ccccc3Sc3ccccc32)CC1 [quetiapine],risk of pneumonia requiring hospitalization,[4],modestly increased risk
Cc1nc2n(c(=O)c1CCN1CCC(c3noc4cc(F)ccc34)CC1)CCCC2 [risperidone],risk of pneumonia requiring hospitalization,[4],modestly increased risk
omalizumab: humanised monoclonal anti-IgE antibody,treatment of refractory chronic spontaneous urticaria,"IgE; 2 phase II and 4 phase III trials (Chang et al., 2015)",efficacious and safe
same,clinical efficacy in allergic rhinitis,"IgE; Holgate et al., 2005, Tsabouri et al., 2014",clinically effective
same,effect in refractory/relapsing Churg-Strauss syndrome,"IgE; Jachiet et al., 2016",corticosteroid-sparing effect
same,efficacy in atopic individuals with coexisting eye disease,"IgE; Kopp et al., 2009",has shown efficacy
same,burden of asthma symptoms,"IgE; inner city children and young adults (Busse et al., 2011)",significant reduction
same,clinical outcome in eosinophilic oesophagitis,"IgE; pilot study (Loizou et al., 2015)",clinical improvement in a proportion of patients
rituximab: anti-CD-20 antibody used for B cell depletion,clinical outcome in Churg-Strauss syndrome,"CD20; Mohammad et al., 2016",clinically effective in inducing remission or partial responses
same,clinical outcome in atopic dermatitis,"CD20; Simon et al., 2008",substantial clinical improvement
same,"reduction of B cells in the skin, atopic dermatitis","CD20; Simon et al., 2008",~50%
same,effect on IgE levels,"CD20; van Vollenhoven et al., 2013",modest

# From patent publication US20210137941A1 (ZARODEX THERAPEUTICS LIMITED, priority 2018, published 2021)
